US11478466B2, “Small molecule promoting osteoblast differentiation” (Cornell University, priority 2019, dated 2022)

Columns and labels:
[1] = tested on: primary human mesenchymal stem cells (hMSCs); assay: In vitro mineralization assay (alizarin red) in hMSCs; format: cell-based; settings: hMSCs in osteogenic medium, 10 μM from day 12 to 18, normalized to cell number
Description: To extend these observations to human osteoblast maturation, a quantitative assay was used to analyze mineralization in differentiating primary human mesenchymal stem cells (hMSCs). Bone marrow-derived hMSCs were cultured in unbiased growth medium for at least two passages and then cultured in osteogenic medium for 12 to 21 days and stained with alizarin red to identify a time window in which spontaneous mineralization first occurred (FIG. 4A). Subsequently, hMSCs in osteogenic medium were treated continuously with DIPQUO from day 12 to 18, stained and compared with equivalent DMSO treated controls, and then normalized to total cell numbers (FIG. 4B). DIPQUO-treated samples incorporated alizarin red in a molar ratio approximately 5 times greater than DMSO-treated samples (FIGS. 4C and 4D).
For mineralization studies, primary bone marrow-derived hMSCs (Lonza) were maintained and passaged in complete hMSC growth medium (Lonza). Cells were then switched to osteogenic medium (Lonza PT-3002) for 12 days, after which they were treated with DMSO or 10 μM DIPQUO for an additional 6 days. […] Staining was quantified using the Osteogenesis Quantitation kit (Millipore ECM815) following manufacturer's instructions. […] Absorbance was measured at 405 nm using an EMax Plus microplate reader and SoftMax Pro 7.0 software. […]

[2] = tested on: alkaline phosphatase (ALP); assay: ALP expression staining in C2C12 cells; format: cell-based, mouse; settings: C2C12, 2 days, 10 μM
Description: C2C12 cells were treated for 2 days with 10 μM DIPQUO or structural analogs, 1 ng/ml rhBMP4, or with inhibitors as noted in figure legends, and then fixed briefly in 70% acetone/10% formaldehyde/20% citrate. Staining was achieved using the leukocyte alkaline phosphatase kit (Sigma 86R-1KT) according to the manufacturer's instructions. Expression of ALP was confirmed and quantified by flow cytometric analysis, using an Accuri C6 flow cytometer. Briefly, control- or DIPQUO-treated C2C12 cells were detached and harvested on day 2 using PBS-based enzyme-free cell detachment solution (ThermoFisher). 2×10^5 cells were incubated on ice for 30 minutes with 10 μl APC-conjugated ALPL antibody (R&D Systems), and washed in ice-cold PBS before analysis. Live cells were gated and analyzed in CFlow Plus software and then data was converted to FlowJo to achieve publication-level resolution. For siRNA experiments, gene-specific oligonucleotides were obtained for mouse p38-alpha (Cell Signaling) and p38-beta (Santa Cruz). Signal Silence scramble siRNA control oligonucleotide was purchased from Cell Signaling. C2C12 cells at 70% confluency were transfected in 12-well plates using Lipofectamine RNAiMax reagent (Invitrogen) according to manufacturer's instructions. Transfected cells were treated 24 hours later with DMSO or 10 μM DIPQUO, and siRNA transfection was repeated after 48 hours without changing culture media. After an additional 3 days, cells were either fixed and stained for ALP expression or analyzed for ALP activity using the AttoPhos Substrate kit. Hemagglutinin and FLAG epitope-tagged MKK3 (pMT2-HA-MKK3) and MKK6 (pcDNA3-FLAG-MKK6) constructs were obtained from Addgene and transfected into C2C12 cells using Lipofectamine LTX with Plus Reagent (ThermoFisher) according to manufacturer's instructions and cell extracts analyzed for protein expression and activity as described below.

[3] = tested on: alkaline phosphatase (ALP)
[4] = tested on: p38 MAPK; assay: Western blotting of p38 MAPK phosphorylation in C2C12 cells; format: cell-based, mouse
Description: (§1) Whole cell extracts were collected from C2C12 or BRITER cells in complete lysis buffer (20 mM Tris, 150 mM NaCl, 50 mM NaF, 1% NP40 substitute, HALT protease inhibitor cocktail (ThermoScientific). Proteins were resolved by electrophoresis on pre-cast 10% NuPage Bis-Tris gels (Invitrogen) and transferred to PVDF membranes (Bio-Rad). Membranes were blocked in 5% BSA-TBS-0.5% Tween-20 for 15 minutes, then incubated at 4° overnight with primary antibodies. Antibodies used were: rabbit anti-phospho-p38 MAPK (cat. no. 9211), anti-p38 MAPK XP (8690), anti-phospho-SMAD1/5 (9516), anti-SMAD1 XP (6944), anti-phospho-SMAD2/3 (8828), anti-SMAD2/3 XP (8685), anti-phospho-JNK (4668), anti-SAPK/JNK (9252), anti-phospho-Akt XP (4060), pan anti-Akt (4691), anti-phospho ERK p42/p44 (4377), anti-ERK p42/p44 (9102), anti-phospho-MKK3/6 (12280), anti-MKK3 (8535), anti-phospho-TAK1 (4531), anti-TAK1 (5206), anti-HA (3274), and anti-FLAG (14793); all from Cell Signaling); and mouse anti-p38α (cat. no. 33-1300), anti-p38β (33-8700; both ThermoFisher) and anti-β-actin (Sigma A1978). Proteins were visualized with HRP-conjugated secondary antibodies (Bio-Rad) with WestPico (ThermoFisher) or Immobilon (Millipore) chemiluminescence reagents. Images were obtained and analyzed for relative densitometric relationships on a LI-COR C-DiGit scanner using Image Studio software.

[5] = tested on: MKK3/6; assay: Western blotting of MKK3/6 in BRITER cells; format: cell-based, mouse
Description: Cells were maintained in DMEM with 10% FBS. For analysis of DIPQUO effects independent of BMP signaling, BMP-2 and BMP-4 knockdown was achieved by treating cells overnight with 1 μM 4-hydroxytamoxifen (4-OHT), followed by continued maintenance in 1 μM 4-OHT. Cells were serum-starved for at least 6 hours before treatment with recombinant BMP protein or DIPQUO as noted in figure legends.
as §1, with “33-1300), anti-p38β (33-8700; both ThermoFisher) and anti-β-actin (Sigma A1978). Proteins were visualized with HRP-conjugated secondary antibodies (Bio-Rad) with WestPico (ThermoFisher) or Immobilon (Millipore) chemiluminescence reagents. Images were obtained and analyzed for relative densitometric relationships on a LI-COR C-DiGit scanner using Image Studio software.” left out

Cc1cc(C)c2[nH]c(=O)c(-c3[nH]cnc3-c3ccccc3)cc2c1 [RU-0226606, 6,8-dimethyl-3-(4-phenyl-1H-imidazol-5-yl)quinolin-2(1H)-one]
alizarin red incorporation, molar ratio relative to DMSO-treated samples [1]: approximately 5 times
ALP expression by staining [2]: rapidly stimulate ALP expression within 2 days
RFU Score (10 μM) ([3]; 154-analog library, 10 μM, C2C12, duplicate): 3104
Fluo. Z Score ([3]; SAR of library and proprietary analogs, AttoPhos assay, C2C12): 34.56 ± 1.80
RFU Score Threshold ≥ 800 ([3]; primary screen, 10 μM, C2C12, 4 days, Ex 450/Em 580 nm, rank in brackets not taken): 4000 (1)
Fluorescence Z Score Threshold ≥ 10 ([3]; primary screen, 10 μM, C2C12, 4 days, Z score on DMSO control wells): 94.38 (1)
p38 MAPK signaling (phosphorylation) ([4]; C2C12, western blotting): selectively activated p38 MAPK signaling
concentration at which effects on p38 MAPK and JNK pathway activation overlap ([4]; dose-response, western blotting, 6-8 hours of treatment): 5 to 10 µM
phosphorylation of MKK3/6 [5]: stimulated rapid phosphorylation of MKK3/6
